The source of these data is patent US11535595B2, “Isoquinoline sulfonyl chloride acid addition salts and method of manufacture thereof” (D. WESTERN THERAPEUTICS INSTITUTE, INC., priority 2018, dated 2022).

As a reminder, the melting point is the temperature, or range, at which the solid turns liquid. As for `Cl.O=S(=O)(Cl)c1ccc2cnccc2c1`, the melting point is 102 °C (dec.).
In the case of `c1ccc(CSc2ccc3cnccc3c2)cc1` [compound (4), 6-(benzylthio)isoquinoline] it was 80 °C.
